Measured values published in the supplement of paper PMC13207355.
Counter-ions that a name gives are not always drawn.

Experiments:
Conditions in all cases: exposure time: 72 h
[1] = tested on: E28 (patient-derived glioblastoma stem cells of classical subtype); experiment: surviving fraction (nuclei count normalised to DMSO); higher = more cells surviving (less toxic)
[2] = tested on: E31 (patient-derived glioblastoma stem cells of proneural subtype); experiment: as above
[3] = tested on: E13 (patient-derived glioblastoma stem cells of classical subtype); experiment: as above
[4] = tested on: E21 (patient-derived glioblastoma stem cells of mesenchymal subtype); experiment: as above
[5] = tested on: FT3469 (normal neural stem cell line); experiment: as above
[6] = tested on: E57 (patient-derived glioblastoma stem cells of mesenchymal subtype); experiment: as above
[7] = tested on: E34 (patient-derived glioblastoma stem cells of proneural subtype); experiment: as above
[8] = tested on: E28; experiment: phenotypic distance (Euclidean, principal components) from DMSO controls (arbitrary units); higher = stronger morphological change
[9] = tested on: E31; experiment: as above
[10] = tested on: E13; experiment: as above
[11] = tested on: E21; experiment: as above
[12] = tested on: FT3469; experiment: as above
[13] = tested on: E57; experiment: as above
[14] = tested on: E34; experiment: as above
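For phenotypic distance (Euclidean, principal components) from DMSO controls in this document: cell Painting imaging in 384-well plates, CellProfiler features reduced to at least 20 principal components, Euclidean distance versus same-plate DMSO vehicle wells (0.1% v/v), median over six images per well.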
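For surviving fraction (nuclei count normalised to DMSO) in this document: nuclei counted by high-content imaging of Hoechst-stained cells in laminin-coated 384-well plates, relative to 0.1% DMSO vehicle wells, with staurosporine as cell-death control.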

COc1cc(OC)c(C(=O)CCCN2CCCC2)c(OC)c1 [Buflomedil hydrochloride]
Conditions	phenotypic distance	surviving fraction
[1], 4.1 nM	–	1.16
[1], 12.3 nM	–	1.19
[1], 37 nM	–	0.856
[1], 111.1 nM	–	1.21
[1], 333.3 nM	–	1.1
[1], 1000 nM	–	1.16
[1], 3000 nM	–	0.677
[2], 4.1 nM	–	0.968
[2], 12.3 nM	–	0.998
[2], 37 nM	–	1.23
[2], 111.1 nM	–	1.03
[2], 333.3 nM	–	1.2
[2], 1000 nM	–	1.04
[2], 3000 nM	–	1.02
[3], 4.1 nM	–	0.886
[3], 12.3 nM	–	1.12
[3], 37 nM	–	1.19
[3], 111.1 nM	–	1.13
[3], 333.3 nM	–	1.01
[3], 1000 nM	–	1.17
[3], 3000 nM	–	0.944
[4], 4.1 nM	–	1.05
[4], 12.3 nM	–	1.06
[4], 37 nM	–	1.02
[4], 111.1 nM	–	1.12
[4], 333.3 nM	–	1.13
[4], 1000 nM	–	1.12
[4], 3000 nM	–	0.927
[5], 4.1 nM	–	0.947
[5], 12.3 nM	–	1.27
[5], 37 nM	–	1.15
[5], 111.1 nM	–	1
[5], 333.3 nM	–	1.03
[5], 1000 nM	–	1.1
[5], 3000 nM	–	0.993
[6], 4.1 nM	–	1.06
[6], 12.3 nM	–	1.03
[6], 37 nM	–	0.98
[6], 111.1 nM	–	1.02
[6], 333.3 nM	–	1.04
[6], 1000 nM	–	0.994
[6], 3000 nM	–	0.9
[7], 4.1 nM	–	0.963
[7], 12.3 nM	–	1.03
[7], 37 nM	–	1.02
[7], 111.1 nM	–	1.11
[7], 333.3 nM	–	1.02
[7], 1000 nM	–	1.22
[7], 3000 nM	–	0.991
[8], 4.1 nM	0.701	–
[8], 12.3 nM	0.827	–
[8], 37 nM	0.611	–
[8], 111.1 nM	0.817	–
[8], 333.3 nM	0.347	–
[8], 1000 nM	0.489	–
[8], 3000 nM	0.878	–
[9], 4.1 nM	0.629	–
[9], 12.3 nM	0.47	–
[9], 37 nM	0.918	–
[9], 111.1 nM	0.593	–
[9], 333.3 nM	0.443	–
[9], 1000 nM	0.577	–
[9], 3000 nM	0.55	–
[10], 4.1 nM	0.727	–
[10], 12.3 nM	0.83	–
[10], 37 nM	0.928	–
[10], 111.1 nM	0.845	–
[10], 333.3 nM	0.564	–
[10], 1000 nM	0.536	–
[10], 3000 nM	0.71	–
[11], 4.1 nM	0.617	–
[11], 12.3 nM	0.741	–
[11], 37 nM	0.582	–
[11], 111.1 nM	0.712	–
[11], 333.3 nM	0.706	–
[11], 1000 nM	0.913	–
[11], 3000 nM	0.567	–
[12], 4.1 nM	0.468	–
[12], 12.3 nM	4.94	–
[12], 37 nM	1.05	–
[12], 111.1 nM	0.796	–
[12], 333.3 nM	0.368	–
[12], 1000 nM	0.514	–
[12], 3000 nM	1.05	–
[13], 4.1 nM	0.802	–
[13], 12.3 nM	1.18	–
[13], 37 nM	4.02	–
[13], 111.1 nM	0.575	–
[13], 333.3 nM	0.903	–
[13], 1000 nM	0.71	–
[13], 3000 nM	0.526	–
[14], 4.1 nM	0.771	–
[14], 12.3 nM	0.727	–
[14], 37 nM	0.358	–
[14], 111.1 nM	1.11	–
[14], 333.3 nM	0.684	–
[14], 1000 nM	0.961	–
[14], 3000 nM	0.717	–

CN(C)C(=O)Oc1ccc[n+](C)c1 [Pyridostigmine iodide]
Conditions	phenotypic distance	surviving fraction
[1], 4.1 nM	–	1.07
[1], 12.3 nM	–	0.975
[1], 37 nM	–	1.02
[1], 111.1 nM	–	1.05
[1], 333.3 nM	–	0.949
[1], 1000 nM	–	1.18
[1], 3000 nM	–	0.96
[2], 4.1 nM	–	0.967
[2], 12.3 nM	–	1.05
[2], 37 nM	–	0.914
[2], 111.1 nM	–	1.02
[2], 333.3 nM	–	1.07
[2], 1000 nM	–	0.944
[2], 3000 nM	–	0.851
[3], 4.1 nM	–	1.02
[3], 12.3 nM	–	1.15
[3], 37 nM	–	1.04
[3], 111.1 nM	–	0.975
[3], 333.3 nM	–	1.06
[3], 1000 nM	–	1.03
[3], 3000 nM	–	0.989
[4], 4.1 nM	–	0.969
[4], 12.3 nM	–	1.03
[4], 37 nM	–	1.08
[4], 111.1 nM	–	0.887
[4], 333.3 nM	–	0.981
[4], 1000 nM	–	0.99
[4], 3000 nM	–	1.04
[5], 4.1 nM	–	1.01
[5], 12.3 nM	–	1.12
[5], 37 nM	–	1.2
[5], 111.1 nM	–	1.07
[5], 333.3 nM	–	1.12
[5], 1000 nM	–	1.06
[5], 3000 nM	–	1.15
[6], 4.1 nM	–	1.16
[6], 12.3 nM	–	1.04
[6], 37 nM	–	0.923
[6], 111.1 nM	–	0.99
[6], 333.3 nM	–	0.98
[6], 1000 nM	–	1.01
[6], 3000 nM	–	0.937
[7], 4.1 nM	–	1.17
[7], 12.3 nM	–	0.894
[7], 37 nM	–	1.01
[7], 111.1 nM	–	0.914
[7], 333.3 nM	–	0.904
[7], 1000 nM	–	1.05
[7], 3000 nM	–	1.24
[8], 4.1 nM	0.458	–
[8], 12.3 nM	0.757	–
[8], 37 nM	0.73	–
[8], 111.1 nM	0.63	–
[8], 333.3 nM	0.567	–
[8], 1000 nM	0.651	–
[8], 3000 nM	0.684	–
[9], 4.1 nM	0.409	–
[9], 12.3 nM	0.507	–
[9], 37 nM	0.601	–
[9], 111.1 nM	0.878	–
[9], 333.3 nM	0.996	–
[9], 1000 nM	2.91	–
[9], 3000 nM	0.798	–
[10], 4.1 nM	0.653	–
[10], 12.3 nM	0.436	–
[10], 37 nM	0.527	–
[10], 111.1 nM	0.34	–
[10], 333.3 nM	0.667	–
[10], 1000 nM	0.894	–
[10], 3000 nM	1.1	–
[11], 4.1 nM	0.939	–
[11], 12.3 nM	0.565	–
[11], 37 nM	0.637	–
[11], 111.1 nM	0.901	–
[11], 333.3 nM	3.46	–
[11], 1000 nM	1.09	–
[11], 3000 nM	1.02	–
[12], 4.1 nM	0.42	–
[12], 12.3 nM	0.709	–
[12], 37 nM	0.762	–
[12], 111.1 nM	0.872	–
[12], 333.3 nM	0.927	–
[12], 1000 nM	0.794	–
[12], 3000 nM	1.39	–
[13], 4.1 nM	0.948	–
[13], 12.3 nM	0.52	–
[13], 37 nM	0.595	–
[13], 111.1 nM	0.71	–
[13], 333.3 nM	0.854	–
[13], 1000 nM	0.982	–
[13], 3000 nM	0.881	–
[14], 4.1 nM	0.578	–
[14], 12.3 nM	0.331	–
[14], 37 nM	1.86	–
[14], 111.1 nM	0.616	–
[14], 333.3 nM	0.79	–
[14], 1000 nM	0.731	–
[14], 3000 nM	0.846	–
